According to ChEMBL document CHEMBL1201862, “PubChem BioAssay data set” (2004):
The source made the active and inactive calls.

Legend:
[1] = molecular target: T1, Low molecular weight phosphotyrosine protein phosphatase (Homo sapiens, UniProt P24666); format: functional; conditions: read-out: IC50_Mean
T1 sequence (P24666 whole entry): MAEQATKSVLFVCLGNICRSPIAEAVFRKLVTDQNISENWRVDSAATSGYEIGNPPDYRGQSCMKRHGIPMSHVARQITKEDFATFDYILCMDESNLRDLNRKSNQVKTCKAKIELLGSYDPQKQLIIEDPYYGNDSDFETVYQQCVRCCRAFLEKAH

[2] = molecular target: T1, Low molecular weight phosphotyrosine protein phosphatase; format: functional; conditions: read-out: IC50_Mean; remark: listed apart in the source
[3] = miR-122 activators in hepatoma reporter cells, dose response, cell-based, Huh7 psiCHECK-miR122, Renilla luciferase, cherry-picked (AID 651956); format: functional;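 note: huh7 hepatoma cells stably carrying a psiCHECK-2 miR-122 sensor plasmid; renilla luciferase signal reporting endogenous miR-122 activity after 48 h compound exposure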
[4] = molecular target: Intestinal-type alkaline phosphatase (Mus musculus, UniProt P24822); experiment: PubChem AID 488785; format: functional
[5] = control 3'UTR Renilla luciferase suppression, dose response, counter-screen for Shn3 inhibitor project, cell-based, Clone20-Shn3RL, cherry-picked (AID 624133); format: functional
[6] = molecular target: DNA (cytosine-5)-methyltransferase 1 (Homo sapiens, UniProt P26358); experiment: DNMT1 methyltransferase inhibitors, confirmation, biochemical, fluorescent molecular beacon (AID 602386); format: functional
[7] = molecular target: T2, Alkaline phosphatase, tissue-nonspecific isozyme (Homo sapiens, UniProt P05186); experiment: TNAP enzyme inhibition by screening hits, dose response, selectivity assay for mouse IAP inhibitor project, biochemical, human TNAP, uHTS hits (AID 488906); format: functional
T2 sequence (P05186 whole entry): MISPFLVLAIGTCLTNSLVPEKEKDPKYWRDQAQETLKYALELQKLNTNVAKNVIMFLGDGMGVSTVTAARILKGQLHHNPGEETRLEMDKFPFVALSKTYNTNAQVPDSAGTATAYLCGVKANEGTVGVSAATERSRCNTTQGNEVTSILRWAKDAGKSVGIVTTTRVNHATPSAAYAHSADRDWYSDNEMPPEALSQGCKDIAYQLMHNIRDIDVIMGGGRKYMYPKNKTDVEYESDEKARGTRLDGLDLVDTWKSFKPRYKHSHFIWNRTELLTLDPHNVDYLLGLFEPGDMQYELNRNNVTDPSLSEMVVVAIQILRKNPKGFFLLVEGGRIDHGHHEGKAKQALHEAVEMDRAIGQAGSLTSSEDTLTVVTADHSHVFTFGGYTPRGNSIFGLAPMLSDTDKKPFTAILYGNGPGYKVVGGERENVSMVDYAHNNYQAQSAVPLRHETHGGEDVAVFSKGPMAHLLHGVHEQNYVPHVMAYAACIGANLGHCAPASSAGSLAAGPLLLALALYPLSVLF

[8] = molecular target: T3, Caspase-6 (Homo sapiens, UniProt P55212); experiment: human caspase-6 inhibitors, dose response, biochemical, VEID-R110 fluorescence, cherry-pick (AID 720632)
T3 sequence (P55212 whole entry): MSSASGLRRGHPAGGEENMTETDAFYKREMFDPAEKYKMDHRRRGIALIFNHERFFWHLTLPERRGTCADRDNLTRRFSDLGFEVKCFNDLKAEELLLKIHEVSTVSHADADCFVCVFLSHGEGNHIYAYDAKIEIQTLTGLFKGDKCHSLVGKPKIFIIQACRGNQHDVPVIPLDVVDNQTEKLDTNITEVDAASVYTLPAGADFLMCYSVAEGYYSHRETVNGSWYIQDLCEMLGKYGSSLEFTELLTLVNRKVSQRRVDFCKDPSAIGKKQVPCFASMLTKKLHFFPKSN

[9] = molecular target: Intestinal-type alkaline phosphatase (Homo sapiens, UniProt P09923); experiment: inhibition of human intestinal alkaline phosphatase – biochemical, dose response (AID 488876); format: functional
[10] = molecular target: Mitochondrial peptide methionine sulfoxide reductase (Bos taurus, UniProt P54149); format: functional;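 note: absorbance read-out, biochemical high-throughput dose-response screen for MsrA inhibitors, confirmatory; recombinant bovine MsrA coupled to E. coli TrxB with NADPH and selenocystamine; potency is for inhibitors of MsrA activity on DMSO substrate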
[11] = cytotoxicity toward NIH3T3 fibroblasts, dose response, counter-screen, cell-based, ATP luminescence, mouse fibroblasts (AID 2010); format: functional;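 note: cells exposed to compound for about 90 hours before reading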
[12] = molecular target: Melanocortin receptor 4 (Homo sapiens, UniProt P32245); format: functional, cell-based;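 note: Cell-based assay with luminescence read-out, confirmatory dose-response testing for agonist activity of biased ligands at MC4R; human U2OS cells with tagged receptor and beta-arrestin; potency of agonists that increase receptor coupling to beta-arrestin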
[13] = tested on: Vero; experiment: West Nile virus antiviral activity, cell-based, CPE readout (AID 1621); format: functional; conditions: Chlorocebus sabaeus
[14] = inhibitors of intracellular T. cruzi replication, confirmation, NIH3T3 host cells, beta-gal luminescence (AID 2044); format: functional, cell-based;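 note: intracellular parasites grown in NIH/3T3 mouse fibroblasts as host cells; luminescent beta-galactosidase reporter signal from transgenic T. cruzi replicating inside host cells; inhibitors lower the luminescence signal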
[15] = molecular target: T4, Protein skinhead-1 (Caenorhabditis elegans, UniProt P34707); format: functional
T4 sequence (P34707 whole entry): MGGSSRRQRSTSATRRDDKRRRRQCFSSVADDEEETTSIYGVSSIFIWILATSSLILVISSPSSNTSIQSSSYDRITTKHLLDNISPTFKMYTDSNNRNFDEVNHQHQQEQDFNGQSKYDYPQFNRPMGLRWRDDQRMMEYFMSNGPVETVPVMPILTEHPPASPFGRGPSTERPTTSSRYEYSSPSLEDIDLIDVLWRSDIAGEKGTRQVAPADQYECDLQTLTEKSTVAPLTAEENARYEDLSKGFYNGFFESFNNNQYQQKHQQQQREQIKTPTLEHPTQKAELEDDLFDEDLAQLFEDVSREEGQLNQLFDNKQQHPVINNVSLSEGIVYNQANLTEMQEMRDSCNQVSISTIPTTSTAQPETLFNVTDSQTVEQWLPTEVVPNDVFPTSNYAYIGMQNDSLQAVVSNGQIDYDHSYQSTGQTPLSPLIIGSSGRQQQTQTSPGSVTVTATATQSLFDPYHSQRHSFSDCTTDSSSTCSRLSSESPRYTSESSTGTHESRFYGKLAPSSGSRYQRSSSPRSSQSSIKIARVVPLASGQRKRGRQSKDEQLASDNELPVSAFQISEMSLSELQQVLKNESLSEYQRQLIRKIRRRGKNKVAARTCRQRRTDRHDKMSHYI

[16] = molecular target: Ras and Rab interactor 1/Tyrosine-protein kinase ABL1 (Homo sapiens, UniProt P00519+Q13671); format: functional;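 note: biochemical TR-FRET dose-response test measuring inhibition of binding between Rin1 and Abl proteins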
[17] = molecular target: Prothrombin (Bos taurus, UniProt P00735); experiment: thrombin inhibition, dose response, biochemical, fluorescence polarization, uHTS hits (AID 602369); format: functional
[18] = molecular target: 26S proteasome non-ATPase regulatory subunit 14 (Homo sapiens, UniProt O00487); experiment: inhibition of proteasome subunit RPN11 – biochemical, fluorescence polarization, uHTS hits, confirmation (AID 602368); format: functional
[19] = molecular target: 72 kDa type IV collagenase (Homo sapiens, UniProt P08253); experiment: Dose Response validation of uHTS RPN11 inhibitor hits using a MMP-2 Fluorescence assay.; format: functional
[20] = molecular target: T5, Sentrin-specific protease 1 (Homo sapiens, UniProt Q9P0U3); experiment: potency of human SENP1 inhibitors, dose response, biochemical, kinetic FRET (AID 651697); format: functional; conditions: read-out: IC50_Mean
T5 sequence (Q9P0U3 whole entry): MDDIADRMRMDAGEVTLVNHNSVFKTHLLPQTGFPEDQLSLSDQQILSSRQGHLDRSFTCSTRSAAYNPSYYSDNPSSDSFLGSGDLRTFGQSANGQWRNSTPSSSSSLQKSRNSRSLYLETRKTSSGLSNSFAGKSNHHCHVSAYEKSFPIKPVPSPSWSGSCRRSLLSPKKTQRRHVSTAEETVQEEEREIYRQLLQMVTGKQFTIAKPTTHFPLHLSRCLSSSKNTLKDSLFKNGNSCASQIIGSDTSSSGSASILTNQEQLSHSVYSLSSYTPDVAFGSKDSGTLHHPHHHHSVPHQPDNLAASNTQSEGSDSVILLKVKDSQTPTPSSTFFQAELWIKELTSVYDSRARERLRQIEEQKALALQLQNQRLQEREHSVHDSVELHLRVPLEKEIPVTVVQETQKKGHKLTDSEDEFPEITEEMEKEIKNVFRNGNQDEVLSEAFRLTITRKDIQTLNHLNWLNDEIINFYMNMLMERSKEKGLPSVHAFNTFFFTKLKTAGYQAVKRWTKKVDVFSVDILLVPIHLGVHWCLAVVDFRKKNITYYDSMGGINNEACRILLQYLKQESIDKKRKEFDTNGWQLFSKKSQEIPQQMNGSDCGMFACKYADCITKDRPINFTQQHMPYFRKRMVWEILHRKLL

[21] = molecular target: T5, Sentrin-specific protease 1; experiment: Dose response confirmation of small molecule inhibitors of the catalytic domain of the SUMO protease, SENP1 in a FRET assay.; format: functional; conditions: read-out: IC50_Mean
[22] = molecular target: Dual specificity tyrosine-phosphorylation-regulated kinase 1A (Rattus norvegicus, UniProt Q63470); format: biochemical, Homo sapiens
[23] = molecular target: Cytochrome P450 3A4 (Homo sapiens, UniProt P08684);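 note: CYP3A4 tested as one member of a cytochrome P450 panel screen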
[24] = tested on: P388/ADR; experiment: cells; format: functional; conditions: Mus musculus
[25] = tested on: P388; experiment: cells; format: functional; conditions: Mus musculus
[26] = tested on: SN12K1; experiment: cells; format: functional; conditions: Homo sapiens
[27] = molecular target: T6, Aryl hydrocarbon receptor (Homo sapiens, UniProt P35869); conditions: Potency;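 note: confirmatory quantitative high-throughput screen measuring activation of the AhR signaling pathway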
T6 sequence (P35869 whole entry): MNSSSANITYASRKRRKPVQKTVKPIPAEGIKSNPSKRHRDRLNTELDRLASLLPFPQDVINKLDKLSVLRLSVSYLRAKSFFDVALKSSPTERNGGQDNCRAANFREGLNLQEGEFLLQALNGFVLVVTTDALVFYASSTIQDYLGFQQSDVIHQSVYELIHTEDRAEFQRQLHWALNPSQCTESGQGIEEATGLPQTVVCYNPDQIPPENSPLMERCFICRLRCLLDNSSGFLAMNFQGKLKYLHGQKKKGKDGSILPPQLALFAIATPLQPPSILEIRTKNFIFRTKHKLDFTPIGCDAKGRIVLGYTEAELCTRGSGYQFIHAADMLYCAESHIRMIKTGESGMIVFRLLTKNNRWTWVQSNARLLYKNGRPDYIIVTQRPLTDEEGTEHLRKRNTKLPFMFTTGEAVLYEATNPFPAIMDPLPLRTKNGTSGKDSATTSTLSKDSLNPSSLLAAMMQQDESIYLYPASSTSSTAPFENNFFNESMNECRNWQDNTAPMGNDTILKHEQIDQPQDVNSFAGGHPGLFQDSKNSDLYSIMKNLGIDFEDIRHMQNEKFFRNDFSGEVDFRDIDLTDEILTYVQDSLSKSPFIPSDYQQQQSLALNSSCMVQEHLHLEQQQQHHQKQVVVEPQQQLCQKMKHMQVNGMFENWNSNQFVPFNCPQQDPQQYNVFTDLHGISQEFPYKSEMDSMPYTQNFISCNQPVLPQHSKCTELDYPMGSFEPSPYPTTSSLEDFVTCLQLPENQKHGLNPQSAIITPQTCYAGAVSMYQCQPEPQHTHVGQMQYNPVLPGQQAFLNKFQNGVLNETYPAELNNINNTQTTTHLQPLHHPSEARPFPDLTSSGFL

Chain of 26S proteasome non-ATPase regulatory subunit 14 (O00487 whole entry): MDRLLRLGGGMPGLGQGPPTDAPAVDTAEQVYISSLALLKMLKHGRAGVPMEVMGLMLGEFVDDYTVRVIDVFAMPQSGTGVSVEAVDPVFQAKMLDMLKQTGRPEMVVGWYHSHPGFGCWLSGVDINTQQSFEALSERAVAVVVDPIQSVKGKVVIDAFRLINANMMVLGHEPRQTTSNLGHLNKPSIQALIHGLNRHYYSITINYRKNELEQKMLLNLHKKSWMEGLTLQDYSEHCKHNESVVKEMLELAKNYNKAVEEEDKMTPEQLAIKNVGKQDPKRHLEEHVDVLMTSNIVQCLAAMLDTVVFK
Chain of 72 kDa type IV collagenase (P08253 whole entry): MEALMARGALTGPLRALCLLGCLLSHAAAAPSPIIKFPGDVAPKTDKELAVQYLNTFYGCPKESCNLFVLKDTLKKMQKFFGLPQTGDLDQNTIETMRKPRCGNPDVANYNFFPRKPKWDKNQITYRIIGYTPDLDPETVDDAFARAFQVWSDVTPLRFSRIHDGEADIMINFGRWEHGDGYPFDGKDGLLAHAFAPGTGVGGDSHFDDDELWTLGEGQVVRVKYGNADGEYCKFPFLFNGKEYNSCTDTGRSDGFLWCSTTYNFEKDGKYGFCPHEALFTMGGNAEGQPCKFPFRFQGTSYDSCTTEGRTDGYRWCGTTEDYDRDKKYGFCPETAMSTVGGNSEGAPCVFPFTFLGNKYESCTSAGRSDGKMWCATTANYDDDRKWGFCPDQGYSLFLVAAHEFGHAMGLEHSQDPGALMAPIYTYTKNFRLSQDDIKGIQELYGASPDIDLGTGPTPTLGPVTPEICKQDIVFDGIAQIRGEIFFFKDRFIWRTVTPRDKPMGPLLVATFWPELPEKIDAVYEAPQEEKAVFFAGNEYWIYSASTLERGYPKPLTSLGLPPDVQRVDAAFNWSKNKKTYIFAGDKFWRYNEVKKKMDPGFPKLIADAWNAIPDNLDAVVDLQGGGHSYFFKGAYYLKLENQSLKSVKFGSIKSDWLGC
Chain of Mitochondrial peptide methionine sulfoxide reductase (P54149 whole entry): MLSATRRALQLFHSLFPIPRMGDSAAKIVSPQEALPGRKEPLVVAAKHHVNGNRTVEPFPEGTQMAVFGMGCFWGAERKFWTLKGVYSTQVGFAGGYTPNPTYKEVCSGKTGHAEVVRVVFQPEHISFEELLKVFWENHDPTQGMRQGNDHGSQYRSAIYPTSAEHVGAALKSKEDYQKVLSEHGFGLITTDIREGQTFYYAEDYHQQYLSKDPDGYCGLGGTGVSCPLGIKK
Chain of Ras and Rab interactor 1/Tyrosine-protein kinase ABL1 (P00519 whole entry): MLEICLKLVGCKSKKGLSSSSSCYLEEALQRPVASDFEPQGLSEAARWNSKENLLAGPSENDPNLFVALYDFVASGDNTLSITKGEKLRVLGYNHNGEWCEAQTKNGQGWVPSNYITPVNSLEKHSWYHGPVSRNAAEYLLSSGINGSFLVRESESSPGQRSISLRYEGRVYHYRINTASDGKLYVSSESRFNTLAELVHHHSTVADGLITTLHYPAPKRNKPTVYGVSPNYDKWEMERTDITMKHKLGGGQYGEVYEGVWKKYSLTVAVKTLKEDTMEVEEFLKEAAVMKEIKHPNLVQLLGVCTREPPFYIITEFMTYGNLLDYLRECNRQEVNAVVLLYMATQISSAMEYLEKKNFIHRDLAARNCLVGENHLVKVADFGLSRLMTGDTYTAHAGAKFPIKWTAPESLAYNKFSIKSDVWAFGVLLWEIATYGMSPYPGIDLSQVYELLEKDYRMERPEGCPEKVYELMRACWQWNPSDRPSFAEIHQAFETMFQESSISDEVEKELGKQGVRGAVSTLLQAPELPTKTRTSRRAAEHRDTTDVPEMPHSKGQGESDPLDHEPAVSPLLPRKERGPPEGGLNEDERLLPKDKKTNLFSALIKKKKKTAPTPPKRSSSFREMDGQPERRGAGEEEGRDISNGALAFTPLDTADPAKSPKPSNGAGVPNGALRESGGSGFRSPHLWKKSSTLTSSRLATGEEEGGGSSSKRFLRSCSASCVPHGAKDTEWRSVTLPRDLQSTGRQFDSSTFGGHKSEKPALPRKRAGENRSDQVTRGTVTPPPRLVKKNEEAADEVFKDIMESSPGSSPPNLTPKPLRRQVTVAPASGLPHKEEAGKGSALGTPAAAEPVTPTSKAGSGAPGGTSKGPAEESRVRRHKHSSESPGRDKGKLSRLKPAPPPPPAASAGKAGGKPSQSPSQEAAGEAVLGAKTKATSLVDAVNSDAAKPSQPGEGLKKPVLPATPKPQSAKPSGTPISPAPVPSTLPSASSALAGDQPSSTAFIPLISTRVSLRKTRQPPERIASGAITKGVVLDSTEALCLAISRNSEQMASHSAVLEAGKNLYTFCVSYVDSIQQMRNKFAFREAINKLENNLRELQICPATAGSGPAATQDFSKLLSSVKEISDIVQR
Chain of Ras and Rab interactor 1/Tyrosine-protein kinase ABL1 (Q13671 whole entry): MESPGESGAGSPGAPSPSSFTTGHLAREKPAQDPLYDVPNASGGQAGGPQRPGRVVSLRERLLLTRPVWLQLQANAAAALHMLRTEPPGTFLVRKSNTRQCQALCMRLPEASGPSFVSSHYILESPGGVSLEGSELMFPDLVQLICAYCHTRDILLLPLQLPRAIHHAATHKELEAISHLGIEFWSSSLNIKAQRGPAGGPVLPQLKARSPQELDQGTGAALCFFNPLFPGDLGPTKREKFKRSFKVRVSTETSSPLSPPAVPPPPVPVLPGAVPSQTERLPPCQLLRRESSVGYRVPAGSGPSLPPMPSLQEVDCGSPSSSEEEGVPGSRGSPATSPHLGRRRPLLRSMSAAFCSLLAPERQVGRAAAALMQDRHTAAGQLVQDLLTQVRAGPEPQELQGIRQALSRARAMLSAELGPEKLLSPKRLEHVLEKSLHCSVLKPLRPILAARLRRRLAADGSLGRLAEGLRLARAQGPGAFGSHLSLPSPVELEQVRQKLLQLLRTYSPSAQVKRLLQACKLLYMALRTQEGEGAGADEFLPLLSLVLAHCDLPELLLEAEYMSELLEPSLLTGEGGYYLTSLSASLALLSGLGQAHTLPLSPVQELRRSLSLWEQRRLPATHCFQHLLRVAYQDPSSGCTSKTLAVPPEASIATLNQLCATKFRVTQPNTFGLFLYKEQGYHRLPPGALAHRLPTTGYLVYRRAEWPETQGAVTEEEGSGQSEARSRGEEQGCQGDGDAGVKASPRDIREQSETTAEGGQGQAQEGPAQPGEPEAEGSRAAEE
Chain of Melanocortin receptor 4 (P32245 whole entry): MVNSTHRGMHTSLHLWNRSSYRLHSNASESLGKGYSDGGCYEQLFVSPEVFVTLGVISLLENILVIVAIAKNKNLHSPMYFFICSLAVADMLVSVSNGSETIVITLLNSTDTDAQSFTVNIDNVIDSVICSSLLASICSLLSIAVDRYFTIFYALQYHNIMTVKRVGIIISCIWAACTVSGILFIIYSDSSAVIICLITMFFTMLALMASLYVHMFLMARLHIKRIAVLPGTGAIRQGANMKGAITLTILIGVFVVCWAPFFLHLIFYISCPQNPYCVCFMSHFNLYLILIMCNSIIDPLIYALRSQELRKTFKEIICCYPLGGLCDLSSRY
Chain of Cytochrome P450 3A4 (P08684 whole entry): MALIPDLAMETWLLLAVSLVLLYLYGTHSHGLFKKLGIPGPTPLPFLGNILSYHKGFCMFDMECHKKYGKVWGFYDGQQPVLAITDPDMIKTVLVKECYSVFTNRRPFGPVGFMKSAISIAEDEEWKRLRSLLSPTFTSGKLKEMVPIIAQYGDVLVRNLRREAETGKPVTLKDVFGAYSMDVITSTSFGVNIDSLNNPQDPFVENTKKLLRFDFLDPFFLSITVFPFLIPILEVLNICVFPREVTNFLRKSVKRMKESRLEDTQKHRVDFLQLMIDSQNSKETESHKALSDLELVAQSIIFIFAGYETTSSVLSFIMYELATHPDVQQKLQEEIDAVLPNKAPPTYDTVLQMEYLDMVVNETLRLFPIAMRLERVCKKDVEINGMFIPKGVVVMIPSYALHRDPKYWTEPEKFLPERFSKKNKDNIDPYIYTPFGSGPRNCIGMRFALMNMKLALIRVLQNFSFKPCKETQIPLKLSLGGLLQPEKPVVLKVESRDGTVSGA
Chain of Intestinal-type alkaline phosphatase (Mus musculus, UniProt P24822) (P24822 whole entry): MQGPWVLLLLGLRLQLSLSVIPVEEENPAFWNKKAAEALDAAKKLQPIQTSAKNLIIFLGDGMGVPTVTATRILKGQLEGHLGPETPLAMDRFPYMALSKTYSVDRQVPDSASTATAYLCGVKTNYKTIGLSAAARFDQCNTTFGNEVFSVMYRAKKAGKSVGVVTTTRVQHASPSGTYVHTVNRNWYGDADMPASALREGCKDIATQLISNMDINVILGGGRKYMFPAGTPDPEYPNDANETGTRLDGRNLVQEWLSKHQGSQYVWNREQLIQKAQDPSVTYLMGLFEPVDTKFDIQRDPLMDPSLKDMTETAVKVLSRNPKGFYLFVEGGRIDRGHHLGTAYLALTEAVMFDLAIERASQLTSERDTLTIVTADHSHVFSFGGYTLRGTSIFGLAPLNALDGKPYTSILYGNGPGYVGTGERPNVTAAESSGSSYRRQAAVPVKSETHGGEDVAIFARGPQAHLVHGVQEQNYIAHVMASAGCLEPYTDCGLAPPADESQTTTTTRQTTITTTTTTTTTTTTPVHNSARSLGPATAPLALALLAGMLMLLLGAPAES

SMILES: Clc1cccc(Cl)c1Cn1cnc(NCc2ccco2)c2ncnc1-2
- IC50 [1]: 9.54 µM (active)
- IC50 [2]: 4.06 µM (active)

SMILES: CC(=O)Nc1ccc(S(=O)(=O)Nc2ccc(S(=O)(=O)Nc3nc(C)cc(C)n3)cc2)cc1
- AC50 [3]: 19.7 µM (active)

SMILES: COc1ccc(C(=O)OCC(=O)Nc2ncc([N+](=O)[O-])s2)cc1OC
- IC50 [4]: 8.79 µM (active)
- AC50 [5]: 20.8 µM (active)
- IC50 [6]: 4.45 µM (active)
- IC50 [7]: 23.7 µM (active)
- AC50 [8]: 4.75 µM (active)
- IC50 [9]: 72.6 µM (active)

SMILES: S=C1NC2(CCCC2)Nc2ccccc21
- IC50 [10]: 53.6 µM (inactive)

SMILES: CCN1CCN(CCNC(=O)c2ccc(/C=C3\Sc4ccccc4N(Cc4ccccc4F)C3=O)cc2)CC1
- EC50 [11]: > 60 µM (not active)
- EC50 [12]: > 89.2 µM (inactive)
- IC50 [13]: 22.8 µM (active)
- EC50 [14]: 2.03 µM (active)

SMILES: CCOc1ccc2nc(N(CCN(C)C)C(=O)c3cc4ccccc4cc3OC)sc2c1
- IC50 [15]: > 100 µM (inactive)
- IC50 [16]: 52 µM (inactive)

SMILES: COc1cc(/C=C(\C#N)C(=O)Nc2cc(C(F)(F)F)ccc2Cl)ccc1OCC(=O)Nc1cccc(C(F)(F)F)c1
- IC50 [17]: 40.2 µM (active)
- IC50 [18]: 32.5 µM (active)
- IC50 [19]: > 100 µM (inactive)

SMILES: COc1cc(C(=O)Nc2ccc(S(=O)(=O)N3CCCCC3C)cc2)cc(OC)c1OC (stereo not given)
- AC50 [3]: 19.8 µM (active)

SMILES: CCC(=NN=C(CC)c1ccccc1O)c1ccccc1O
- IC50 [20]: 8.19 µM (active)
- IC50 [21]: 10.4 µM (active)

SMILES: CN(Cc1ccccc1)C(=O)c1ccc(NC(=O)Cc2ccc(NC(=O)C3CCN(C(=O)C4CCCC4)CC3)cc2)cc1
- IC50 [16]: 20.7 µM (inactive)

SMILES: O=C1NC(=S)SC1=Cc1cc(Br)ccc1O
- IC50 [20]: 14.7 µM (active)
- IC50 [21]: 2.57 µM (active)
- AC50 [22]: 8.94 µM (active)

SMILES: CCCC/N=c1\scc(-c2ccc3c(c2)NC(=O)CO3)n1N=C1CCCC1
- IC50 [17]: 27.7 µM (active)
- IC50 [18]: 26.6 µM (active)
- IC50 [19]: > 100 µM (inactive)

SMILES: CCOc1ccc(C(=O)N/N=C/c2cc(Cl)ccc2[N+](=O)[O-])cc1
- IC50 [17]: 59.3 µM (active)
- IC50 [18]: 19.3 µM (active)
- IC50 [19]: > 100 µM (inactive)

SMILES: O=C(N/N=C/c1ccc(OCc2ccccc2)cc1)c1cccs1
- AC50 [23]: 39.8 µM (inconclusive)
- EC50 [12]: > 89.2 µM (inactive)

SMILES: CC1OC(O[C@@H]2C=C3CC[C@@H]4[C@H](CC[C@]5(C)[C@@H](c6ccc(=O)oc6)CC[C@]45O)[C@@]3(C)CC2)C(O)C(OC2OC(CO)C(O)C(O)C2O)C1O (stereo not given in full)
- GI50 [24]: 51.3 µM (inactive)
- GI50 [25]: 45.3 µM (inactive)
- GI50 [26]: 25 nM (active)

SMILES: CN(/N=C/C=C/c1ccccc1)c1cc(=O)n(C)c(=O)[nH]1
- IC50 [10]: 155 µM (inactive)

SMILES: CON=C(C(=O)OC)c1ccccc1CO/N=C(\C)c1cccc(C(F)(F)F)c1
- AC50 [27]: 63.1 µM (inconclusive)

SMILES: Cc1ccc(/N=C/N(C)/C=N/c2ccc(C)cc2C)c(C)c1 [AMITRAZ]
- AC50 [27]: 50.1 µM (inconclusive)
